Measurements published in publication PMC12444550, “Design, Synthesis, and Trypanosomicidal Evaluation of Eugenol-Based Azole Hybrids: Discovery of an In Vitro Active and Selective Compound” (ACS Omega, 2025).
Where two headings read alike, the source gives them in different places.

What was measured:
[1] = tested on: T. cruzi Y strain trypomastigote forms; test: Anti-T. cruzi activity against trypomastigote forms; assay type: cell-based; details: for EC50: read-out: Y strain T. cruzi EC50 Trypomastigote; for trypanosomicidal activity (parasite mortality): at 100 μmol·L^–1, trypomastigotes
Procedure: (§1) The T. cruzi Y strain was selected for this study due to its known partial sensitivity to benznidazole chemotherapy.
Trypomastigote forms of T. cruzi (2.5 × 10^5 parasites/well) were incubated in 96-well plates with serial dilutions of the hybrid compounds (100, 50, 25, and 12.5 μmol·L^–1) for 24 h at 37 °C in a humidified 5% CO2 atmosphere. Following incubation, parasite viability was assessed under an optical microscope by evaluating motility, and the number of live parasites was quantified using a Neubauer chamber. Untreated parasite cultures were maintained in parallel as negative controls. The mortality percentage was calculated by comparing the number of live parasites in treated wells to that of untreated controls. All experiments were conducted in triplicate with at least two technical replicates per concentration. EC50 values were determined by nonlinear regression using GraphPad Prism 8 and CompuSyn software (Biosoft, U.K.).

[2] = tested on: T. cruzi Y strain amastigote forms; test: Anti-T. cruzi activity against intracellular amastigote forms in infected Vero or H9c2 cells; assay type: cell-based, Trypanosoma cruzi; details: Vero or H9c2 cells infected with amastigote forms, 48 h of incubation, fixed concentration 50 μmol·L^–1
Procedure: as §1
Vero or H9c2 cells (7.5 × 10^3 cells/well) were seeded on sterile glass coverslips placed in 24-well plates and incubated for 24 h at 37 °C in 5% CO2 to allow cell adhesion. Following this period, cells were infected with trypomastigote forms of T. cruzi Y strain at a ratio of 20 parasites per cell. After 24 h of parasite-host interaction, noninternalized parasites were removed by washing with fresh medium, and the infected monolayers were incubated for 48 h with the hybrid compounds at a fixed concentration of 50 μmol·L^–1, following toxicity parameters. Infected but untreated cells were included as negative controls in all experiments. At the end of the treatment period, coverslips were washed with medium, fixed with methanol, and stained with Giemsa solution. After drying, the coverslips were mounted onto microscope slides using Entellan (Merck) and analyzed under a light microscope at 100× magnification. At least 200 cells were counted per coverslip, and only intracellular parasite forms with characteristic morphology were considered for analysis. The infection index was determined by the percentage of infected cells relative to the total number of cells analyzed. The inhibition percentage was calculated based on the reduction in infection in treated samples compared to the untreated control. Dose–response curves were constructed using GraphPad Prism 8 and CompuSyn (Biosoft, U.K.). All experiments were performed in triplicate, with at least two technical replicates per condition.

[3] = Cell viability assay (resazurin), Vero cells; assay type: cell-based; details: African green monkey, Vero cells; resazurin method; 48 h incubation; read-out: Cytotoxicity CC50 Vero
Procedure: (§2) Vero and H9c2 cells (2 × 10^3 cells/well) were seeded in 96-well plates in Dulbecco’s modified Eagle’s medium (DMEM) supplemented with 5% fetal bovine serum (FBS) and incubated for 24 h at 37 °C in a humidified atmosphere with 5% CO2. After incubation, the medium was replaced with fresh DMEM + 5% FBS containing serial dilutions of each hybrid compound (1400 to 175 μmol·L^–1). Cells were exposed to the compounds for 48 h. Four wells with untreated cells served as a positive control. Additionally, eight wells without cells were maintained as negative controls: four containing DMEM + 5% FBS + resazurin (1 mmol·L^–1), and four containing only DMEM + 5% FBS. After the 48-h incubation, the treatment medium was removed and replaced with DMEM + 5% FBS containing 10% resazurin solution (1 mmol·L^–1). Plates were incubated for an additional 6 h, and then absorbance was measured at 570 and 600 nm using a microplate reader. Dose–response curves were constructed using GraphPad Prism 8 software, and CC50 values were determined by nonlinear regression.

[4] = Cell viability assay (resazurin), H9c2 cells; assay type: cell-based; details: rat, resazurin method, 48 h incubation, read-out: Cytotoxicity CC50 H9c2
Procedure: as §2

[5] = Trypanosoma cruzi, 24 h, 24 h of incubation, Y strain

| SMILES | EC50 [1, 5] [µM] | EC50 ([2]; Trypanosoma cruzi) [µM] | CC50 at 48 h [3] [µM] | CC50 at 48 h [4] [µM] | also measured |
| --- | --- | --- | --- | --- | --- |
| COc1cc(CC(O)Cn2ccnc2)cc([N+](=O)[O-])c1OC (racemic) [Compound 27, (±)-1-(3,4-Dimethoxy-5-nitrophenyl)-3-(1H-imidazol-1-yl)propan-2-ol] | > 100 | > 50 | > 1300 | > 1300 | – |
| COc1cc(CC(O)Cn2ccnc2)ccc1OCc1ccccc1 (racemic) [Compound 28, (±)-1-(4-(Benzyloxy)-3-methoxyphenyl)-3-(1H-imidazol-1-yl)propan-2-ol] | > 100 | > 50 | > 1300 | > 1300 | – |
| COc1cc(CC(O)Cn2ccnc2)cc([N+](=O)[O-])c1OCc1ccccc1 (racemic) [Compound 29, (±)-1-(4-(Benzyloxy)-3-methoxy-5-nitrophenyl)-3-(1H-imidazol-1-yl)propan-2-ol] | – | > 50 | > 1300 | > 1300 | EC50 ([1]; 24 h of incubation, Y strain): 26.5 µM; trypanosomicidal activity (parasite mortality) ([1]; 24 h): approximately 99%; SI (selectivity index) ([1]; mammalian cell CC50 versus trypomastigote EC50): >49 |
| COc1cc(CC(O)Cn2ccnn2)ccc1O (racemic) [Compound 30, (±)-4-(2-Hydroxy-3-(1H-1,2,3-triazol-1-yl)propyl)-2-methoxyphenol] | > 100 | > 50 | > 1300 | > 1300 | – |
| COc1cc(CC(O)Cn2ccnc2)cc([N+](=O)[O-])c1OCc1ccccc1 (single isomer, unassigned; (+)) [(+)-29] | ~29 | – | – | – | EC50 ([1]; 24 h of incubation, Y strain): 28.8 µM; mortality at 100 µM ([1]; Trypanosoma cruzi, 24 h, read-out: trypanosomicidal activity (parasite mortality)): ~99%; EC50 [2]: > 50 µM |
| COc1cc(CC(O)Cn2ccnc2)cc([N+](=O)[O-])c1OCc1ccccc1 (single isomer, unassigned; (-)) [(-)-29] | – | – | – | – | EC50 ([1]; 24 h of incubation, Y strain, listed as (−)-29): ~29 µM; EC50 ([1]; 24 h of incubation, Y strain): 29.9 µM; trypanosomicidal activity (parasite mortality) ([1]; 24 h): approximately 99%; EC50 [2]: > 50 µM |
| C=CCc1ccc(O)c(OC)c1 [Eug, eugenol] | – | – | – | – | EC50 ([1]; Trypanosoma cruzi, 24 h): 500 µM |

Further lines, with some results ahead:

| EC50 [1, 5] [µM] | EC50 ([2]; Trypanosoma cruzi) [µM] | SMILES | CC50 at 48 h [3] [µM] | CC50 at 48 h [4] [µM] | also measured |
| --- | --- | --- | --- | --- | --- |
| > 100 | > 50 | COc1cc(CC(O)Cn2cncn2)ccc1O (racemic) [Compound 18, (±)-4-(2-Hydroxy-3-(1H-1,2,4-triazol-1-yl)propyl)-2-methoxyphenol] | > 1300 | > 1300 | – |
| > 100 | > 50 | COc1cc(CC(O)Cn2cncn2)cc([N+](=O)[O-])c1O (racemic) [Compound 19, (±)-4-(2-Hydroxy-3-(1H-1,2,4-triazol-1-yl)propyl)-2-methoxy-6-nitrophenol] | > 1300 | > 1300 | – |
| > 100 | > 50 | COc1cc(CC(O)Cn2cncn2)cc([N+](=O)[O-])c1OC (racemic) [Compound 21, (±)-1-(3,4-Dimethoxy-5-nitrophenyl)-3-(1H-1,2,4-triazol-1-yl)propan-2-ol] | > 1300 | > 1300 | – |
| > 100 | > 50 | COc1cc(CC(O)Cn2cncn2)ccc1OCc1ccccc1 (racemic) [Compound 22, (±)-1-(4-(Benzyloxy)-3-methoxyphenyl)-3-(1H-1,2,4-triazol-1-yl)propan-2-ol] | > 1300 | > 1300 | – |
| > 100 | > 50 | COc1cc(CC(O)Cn2cncn2)cc([N+](=O)[O-])c1OCc1ccccc1 (racemic) [Compound 23, (±)-1-(4-(Benzyloxy)-3-methoxy-5-nitrophenyl)-3-(1H-1,2,4-triazol-1-yl)propan-2-ol] | > 1300 | > 1300 | activity against trypomastigote forms (in words) ([1]; Y strain, up to 100 μmol·L^–1): inactive |
| > 100 | > 50 | COc1cc(CC(O)Cn2ccnc2)ccc1O (racemic) [Compound 24, (±)-4-(2-Hydroxy-3-(1H-imidazol-1-yl)propyl)-2-methoxyphenol] | > 1300 | > 1300 | – |
| > 100 | > 50 | COc1ccc(CC(O)Cn2ccnc2)cc1OC (racemic) [Compound 26, (±)-1-(3,4-Dimethoxyphenyl)-3-(1H-imidazol-1-yl)propan-2-ol] | > 1300 | > 1300 | – |
